Experimental data as given in PubChem BioAssay AID330 (DTP/NCI, 2004).
Several values for one entry are separate records, joined by “and”; a condition that tells them apart may be missing. Identical values can stand only once. Toxic doses and inconclusive results are not listed. The calls were made as follows: active = survival T/C of 150% or more; inactive = T/C below 125% in these data.

System: P388 leukemia ip, CD2F1 mice, survival T/C
Experiment: NCI In Vivo Anticancer Drug Screen. Data for tumor model P388 Leukemia (intraperitoneal) in CD2F1 (CDF1) mice
Details: endpoint: median survival time, higher = longer survival
Summary of the method: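 Mice carrying the transplanted tumor received test compound or vehicle. Survival was recorded in each group, and the value is the treated-group measurement divided by that of the vehicle-treated control group.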

[1] = dose: 12.5 mg/kg/injection, schedule: Q01DX009 (ip), vehicle: Klucel (hydroxypropylcellulose) (HPC)
[2] = dose: 25.0 mg/kg/injection, schedule: Q01DX009 (ip), vehicle: Klucel (hydroxypropylcellulose) (HPC)
[3] = dose: 50.0 mg/kg/injection, schedule: Q01DX009 (ip), vehicle: Klucel (hydroxypropylcellulose) (HPC)
[4] = dose: 75.0 mg/kg/injection, schedule: Q01DX009 (ip), vehicle: Klucel (hydroxypropylcellulose) (HPC)
[5] = dose: 100.0 mg/kg/injection, schedule: Q04DX003 (ip), vehicle: saline with Tween-80
[6] = dose: 200.0 mg/kg/injection, schedule: Q04DX003 (ip), vehicle: saline with Tween-80
[7] = dose: 400.0 mg/kg/injection, schedule: Q04DX003 (ip), vehicle: saline with Tween-80
[8] = dose: 100.0 mg/kg/injection, schedule: Q04DX003 (ip), vehicle: saline
[9] = dose: 200.0 mg/kg/injection, schedule: Q04DX003 (ip), vehicle: saline
[10] = dose: 50.0 mg/kg/injection, schedule: Q01DX005 (ip), vehicle: Klucel (hydroxypropylcellulose) (HPC)
[11] = dose: 100.0 mg/kg/injection, schedule: Q01DX005 (ip), vehicle: Klucel (hydroxypropylcellulose) (HPC)
[12] = dose: 200.0 mg/kg/injection, schedule: Q01DX005 (ip), vehicle: Klucel (hydroxypropylcellulose) (HPC)
[13] = dose: 50.0 mg/kg/injection, schedule: Q01DX005 (ip), vehicle: saline with Tween-80
[14] = dose: 100.0 mg/kg/injection, schedule: Q01DX005 (ip), vehicle: saline with Tween-80
[15] = dose: 200.0 mg/kg/injection, schedule: Q01DX005 (ip), vehicle: saline with Tween-80
[16] = dose: 50.0 mg/kg/injection, schedule: Q01DX009 (ip), vehicle: saline with Tween-80
[17] = dose: 100.0 mg/kg/injection, schedule: Q01DX009 (ip), vehicle: saline with Tween-80
[18] = dose: 200.0 mg/kg/injection, schedule: Q01DX009 (ip), vehicle: saline with Tween-80
[19] = dose: 400.0 mg/kg/injection, schedule: Q01DX009 (ip), vehicle: saline with Tween-80
[20] = dose: 100.0 mg/kg/injection, schedule: Q01DX009 (ip), vehicle: Klucel (hydroxypropylcellulose) (HPC)
[21] = dose: 25.0 mg/kg/injection, schedule: Q01DX009 (ip), vehicle: saline with Tween-80
[22] = dose: 25.0 mg/kg/injection, schedule: Q01DX005 (ip), vehicle: Klucel (hydroxypropylcellulose) (HPC)
[23] = dose: 60.0 mg/kg/injection, schedule: Q01DX005 (ip), vehicle: saline with Tween-80
[24] = dose: 6.25 mg/kg/injection, schedule: Q01DX005 (ip), vehicle: saline with Tween-80
[25] = dose: 12.5 mg/kg/injection, schedule: Q01DX005 (ip), vehicle: saline with Tween-80
[26] = dose: 25.0 mg/kg/injection, schedule: Q01DX005 (ip), vehicle: saline with Tween-80

Measured: T/C

CC[C@H](CC[C@@H](C)[C@H]1CC[C@H]2[C@@H]3CC=C4C[C@@H](OC(C)=O)CC[C@]4(C)[C@H]3CC[C@]12C)C(C)C
inactive: dose: 6.25 mg/kg/injection, schedule: Q01DX009 (ip), vehicle: Klucel (hydroxypropylcellulose) (HPC) 99 % of control and 110 % of control | [1] 105 % of control and 107 % of control | [2] 104 % of control and 92 % of control | [3] 98 % of control and 105 % of control | [4] 100 % of control and 92 % of control

Cc1cccc2nnc(CCCc3nnc4cccc(C)n34)n12
inactive: [5] 98 % of control | [6] 97 % of control | [7] 96 % of control

COSc1ccc(OC)cc1
inactive: [8] 102 % of control | [9] 97 % of control

OCc1cccc2c1C(O)c1ccccc1-2 (stereo not drawn)
inactive: [10] 100 % of control | [11] 104 % of control | [12] 100 % of control

O=C(N=Nc1ccccc1)Nc1ccc(Br)cc1
inactive: [13] 101 % of control | [14] 101 % of control | [15] 104 % of control

COc1ccc(-c2c(CC(=O)O)c3cc(OC)ccc3n2Cc2ccc(Cl)cc2)cc1
inactive: [16] 101 % of control | [17] 100 % of control | [5] 90 % of control | [18] 100 % of control | [6] 90 % of control | [19] 91 % of control | [7] 90 % of control

CCCCCCC(/C=C/c1ccc(Cl)c(Cl)c1)=N\Nc1c(Cl)cccc1Cl
inactive: [3] 91 % of control | [20] 91 % of control | dose: 200.0 mg/kg/injection, schedule: Q01DX009 (ip), vehicle: Klucel (hydroxypropylcellulose) (HPC) 87 % of control

CN(C)c1ccc(C(O)(Cc2cnc3ccccc3c2)c2ccc(N(C)C)cc2)cc1
inactive: [5] 95 % of control | [6] 103 % of control | [7] 99 % of control

Cc1nn(-c2ccccc2)c2oc3ccccc3c(=O)c12
inactive: dose: 60.0 mg/kg/injection, schedule: Q01DX005 (ip), vehicle: saline 92 % of control | dose: 120.0 mg/kg/injection, schedule: Q01DX005 (ip), vehicle: saline 100 % of control | dose: 240.0 mg/kg/injection, schedule: Q01DX005 (ip), vehicle: saline 96 % of control

CC(=O)OC1C=CC(O)N(C(C)=O)C1SC1C2CC3CC(C2)CC1C3 (stereo not drawn)
inactive: [8] 101 % of control | [9] 101 % of control | dose: 400.0 mg/kg/injection, schedule: Q04DX003 (ip), vehicle: saline 108 % of control

CN(C=C(C#N)C#N)c1ccccc1
inactive: dose: 12.5 mg/kg/injection, schedule: Q01DX009 (ip), vehicle: saline with Tween-80 103 % of control | [21] 99 % of control | [16] 99 % of control

[CH3][Bi]1[O]C(=O)c2ccccc2[S]1
inactive: [22] 99 % of control and 102 % of control and 97 % of control

CC(C)Nc1ncnc2[nH]ncc12
inactive: dose: 16.0 mg/kg/injection, schedule: Q01DX009 (ip), vehicle: Klucel (hydroxypropylcellulose) (HPC) 101 % of control | dose: 32.0 mg/kg/injection, schedule: Q01DX009 (ip), vehicle: Klucel (hydroxypropylcellulose) (HPC) 97 % of control | dose: 64.0 mg/kg/injection, schedule: Q01DX009 (ip), vehicle: Klucel (hydroxypropylcellulose) (HPC) 87 % of control

COc1cc2c(cc1OC)C(Cc1cc(OC)c(OC)cc1[N+](=O)[O-])=[N+](C)CC2
inactive: dose: 25.0 mg/kg/injection, schedule: Q01DX009 (ip), vehicle: other 98 % of control | dose: 50.0 mg/kg/injection, schedule: Q01DX009 (ip), vehicle: other 96 % of control | dose: 100.0 mg/kg/injection, schedule: Q01DX009 (ip), vehicle: other 102 % of control

CC1(C2(C)CC2(Br)Br)CC1(Br)Br (stereo not drawn)
inactive: [10] 101 % of control | [11] 102 % of control | [12] 114 % of control

O=[N+]([O-])c1cccc2ccc(N/N=C/c3ccccc3O)nc12
inactive: [3] 94 % of control | [16] 86 % of control | [20] 87 % of control and 91 % of control | [17] 93 % of control | [18] 88 % of control | [19] 89 % of control

CCCCCCCCCCCCCCCCCC(=O)OCCCCCCCCCCCCC
inactive: dose: 100.0 mg/kg/injection, schedule: Q01DX001 (ip), vehicle: other 95 % of control | dose: 200.0 mg/kg/injection, schedule: Q01DX001 (ip), vehicle: other 100 % of control | dose: 400.0 mg/kg/injection, schedule: Q01DX001 (ip), vehicle: other 95 % of control

CC1(C)OC2OC(C3COS(=O)O3)C(Cl)C2O1 (stereo not drawn)
inactive: [23] 107 % of control | dose: 120.0 mg/kg/injection, schedule: Q01DX005 (ip), vehicle: saline with Tween-80 113 % of control | dose: 240.0 mg/kg/injection, schedule: Q01DX005 (ip), vehicle: saline with Tween-80 114 % of control

Clc1ccc(-c2nc(CSc3ccccn3)cs2)cc1
inactive: dose: 50.0 mg/kg/injection, schedule: Q01DX009 (ip), vehicle: saline 102 % of control | dose: 100.0 mg/kg/injection, schedule: Q01DX009 (ip), vehicle: saline 109 % of control | dose: 200.0 mg/kg/injection, schedule: Q01DX009 (ip), vehicle: saline 105 % of control

O=c1oc2ccccc2n1Cc1ccc(Cl)cc1
inactive: [24] 102 % of control | [25] 93 % of control | [26] 99 % of control

Cc1ccc(NC(=O)N(CCCCl)N=O)cc1
inactive: [16] 86 % of control | [5] 95 % of control | [18] 100 % of control | [6] 90 % of control

C=C(Cl)CSc1ncnc2nc[nH]c12
inactive: [16] 100 % of control | dose: 50.0 mg/kg/injection, schedule: Q04DX003 (ip), vehicle: saline with Tween-80 95 % of control | [17] 109 % of control | [5] 91 % of control | [18] 109 % of control | [6] 91 % of control

C/C(N=NC(=S)N1CCCCCC1)=C1\C=CC=CN1O
inactive: [13] 106 % of control | [14] 108 % of control | [15] 110 % of control

CC(C)=CCc1c2c(c(O)c3c(=O)c(-c4ccc(O)c(O)c4)coc13)C=CC(C)(C)O2
inactive: [21] 99 % of control | [16] 105 % of control | [17] 99 % of control | [18] 106 % of control

O=C(Nc1cc(Cl)c(Cl)cc1Cl)OCc1ccc2c(c1)OCO2
inactive: dose: 15.0 mg/kg/injection, schedule: Q01DX005 (ip), vehicle: saline with Tween-80 100 % of control | dose: 30.0 mg/kg/injection, schedule: Q01DX005 (ip), vehicle: saline with Tween-80 94 % of control | [23] 89 % of control and 91 % of control

O=C1C=CC(=O)c2cc(Cl)c(Cl)cc21
inactive: dose: 4.12 mg/kg/injection, schedule: Q01DX009 (ip), vehicle: saline with Tween-80 109 % of control | dose: 6.25 mg/kg/injection, schedule: Q01DX009 (ip), vehicle: saline with Tween-80 113 % of control | dose: 6.25 mg/kg/injection, schedule: Q04DX003 (ip), vehicle: saline with Tween-80 91 % of control | dose: 12.5 mg/kg/injection, schedule: Q04DX003 (ip), vehicle: saline with Tween-80 91 % of control

O=c1[nH]nc2ccc(n[nH]c1=O)c1ccccc21
inactive: dose: 3.13 mg/kg/injection, schedule: Q01DX005 (ip), vehicle: saline with Tween-80 104 % of control | [24] 107 % of control | [25] 99 % of control and 103 % of control | [26] 101 % of control | [13] 104 % of control and 107 % of control

N#CN.[Pb]
inactive: [22] 115 % of control and 94 % of control | [10] 101 % of control (2×) and 104 % of control | [11] 107 % of control and 109 % of control and 110 % of control | [12] 111 % of control

O=C1CCCC1C(=O)c1ccccc1.O=C1CCCC1C(=O)c1ccccc1.[Cu] (stereo not drawn)
inactive: [1] 103 % of control | [2] 100 % of control | [3] 100 % of control and 109 % of control | [20] 116 % of control

Clc1ccc(Cl)nn1
inactive: [16] 97 % of control | [17] 100 % of control | [18] 100 % of control

COc1cc(C)ccc1C1=NC(C)(c2ccc(C)cc2OC)NC1=S (stereo not drawn)
inactive: dose: 37.5 mg/kg/injection, schedule: Q01DX009 (ip), vehicle: Klucel (hydroxypropylcellulose) (HPC) 124 % of control | [4] 120 % of control
